Measured values reported in patent publication US20260325533A1, “CDK INHIBITOR COMPOUNDS” (ALEKSIA THERAPEUTICS, INC., priority 2023, published 2026).
Like-named read-outs stand apart in the source and are kept apart here. Each block holds one compound with its values, some of them ahead of it.

How the values were obtained:
Type in all cases: biochemical
[1] = molecular target: CDK6/CCND1 (Homo sapiens, UniProt Q00534); experiment: CDK6 homogeneous time-resolved fluorescence (HTRF) kinase assay; conditions: CDK6/CCND
In short: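 Assay conditions: HEPES buffer containing 10 mM MgCl2, 1 mM EGTA, 2 mM DTT, 0.01% Tween 20; 1 nM CDK6/CCND1, 50 nM peptide substrate, 1 mM ATP. Detection after 60 min reaction used 2 nM europium antibody with 340 nm excitation. Potency fitted from half-log series, 11 points.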

[2] = molecular target: CDK2/CCNE1 (Homo sapiens, UniProt P24941); experiment: CDK2 homogeneous time-resolved fluorescence (HTRF) kinase assay; conditions: CDK2/CCNE
In short: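 An HTRF format measures CDK2/CCNE1 (3 nM) phosphorylating a 4E-BP1 Thr37/46 peptide at high (1 mM) ATP. Reactions run one hour at 23 °C, then EDTA-quenched and probed with Eu-labelled phospho-specific antibody.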

[3] = molecular target: CDK4/CCND3 (Homo sapiens, UniProt P11802); experiment: CDK4 homogeneous time-resolved fluorescence (HTRF) kinase assay; conditions: CDK4/CCND
In short: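 TR-FRET read (665 nm, or 665/615 ratio) of 4E-BP1 Thr37/46 phosphorylation by 1.5 nM CDK4/CCND3 at 1 mM ATP, 50 nM ULight peptide, 1% DMSO. Reaction ran 60 min at 23 °C after 20 min compound–enzyme preincubation. IC50 from 11-point half-log dilutions, top 10 μM.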

[4] = molecular target: CDK1/CCNB1 (Homo sapiens, UniProt P06493); experiment: CDK1 homogeneous time-resolved fluorescence (HTRF) kinase assay; conditions: CDK1/CCNB
In short: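 High-ATP (1 mM) HTRF assay with 0.5 nM CDK1/cyclin B1 and 50 nM ULight-4E-BP1 (Thr37/46) substrate, 60 min at 23 °C after 20-min compound preincubation. IC50 values come from dose-response curves.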

[5] = >250 nM, 1 mM ATP, read-out: CDK6/CCND IC50, >250 nM
[6] = <25 nM, read-out: CDK2/CCNE IC50, <25 nM
[7] = >250 nM, read-out: CDK4/CCND IC50, >250 nM
[8] = >250 nM, read-out: CDK1/CCNB IC50 >250 nM
[9] = x = IC50 25-250 nM, read-out: CDK6/CCND IC50 (25-250 nM)
[10] = x = IC50 <25 nM, read-out: CDK2/CCNE IC50 (<25 nM)
[11] = x = IC50 25-250 nM, read-out: CDK4/CCND IC50 (25-250 nM)
[12] = x = IC50 >250 nM, read-out: CDK1/CCNB IC50 (>250 nM column)
[13] = 25-250 nM marked x, read-out: CDK6/CCND IC50 25-250 nM
[14] = <25 nM, read-out: CDK2/CCNE IC50 <25 nM
[15] = 25-250 nM marked x, read-out: CDK4/CCND IC50 25-250 nM
[16] = >250 nM marked x, read-out: CDK1/CCNB IC50 >250 nM
[17] = 25-250 nM, read-out: CDK2/CCNE IC50, 25-250 nM
[18] = >250 nM marked x, read-out: CDK6/CCND IC50 >250 nM
[19] = 25-250 nM marked x, read-out: CDK2/CCNE IC50 25-250 nM
[20] = >250 nM marked x, read-out: CDK4/CCND IC50 >250 nM
[21] = <25 nM, read-out: CDK6/CCND IC50 <25 nM
[22] = <25 nM, read-out: CDK4/CCND IC50 <25 nM
[23] = 25-250 nM marked x, read-out: CDK1/CCNB IC50 25-250 nM

Sequence of CDK6/CCND1 (Q00534 whole entry): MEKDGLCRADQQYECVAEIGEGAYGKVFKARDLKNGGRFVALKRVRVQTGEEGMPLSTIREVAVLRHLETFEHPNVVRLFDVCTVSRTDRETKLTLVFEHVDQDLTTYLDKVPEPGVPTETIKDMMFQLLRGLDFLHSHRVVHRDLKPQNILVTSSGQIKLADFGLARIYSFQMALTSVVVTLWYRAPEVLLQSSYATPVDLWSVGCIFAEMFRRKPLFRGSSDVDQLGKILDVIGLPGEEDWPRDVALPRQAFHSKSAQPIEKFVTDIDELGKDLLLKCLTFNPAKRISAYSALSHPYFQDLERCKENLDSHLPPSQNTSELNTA
Sequence of CDK6/CCND1 (P24385 whole entry partner): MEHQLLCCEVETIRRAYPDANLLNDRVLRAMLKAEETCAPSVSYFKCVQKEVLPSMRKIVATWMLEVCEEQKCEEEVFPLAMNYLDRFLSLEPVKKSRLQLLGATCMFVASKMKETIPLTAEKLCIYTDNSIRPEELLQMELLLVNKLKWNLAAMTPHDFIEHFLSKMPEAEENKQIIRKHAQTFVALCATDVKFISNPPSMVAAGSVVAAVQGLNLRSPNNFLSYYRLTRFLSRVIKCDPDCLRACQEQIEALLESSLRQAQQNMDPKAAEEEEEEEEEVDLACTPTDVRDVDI
Sequence of CDK4/CCND3 (P11802 whole entry): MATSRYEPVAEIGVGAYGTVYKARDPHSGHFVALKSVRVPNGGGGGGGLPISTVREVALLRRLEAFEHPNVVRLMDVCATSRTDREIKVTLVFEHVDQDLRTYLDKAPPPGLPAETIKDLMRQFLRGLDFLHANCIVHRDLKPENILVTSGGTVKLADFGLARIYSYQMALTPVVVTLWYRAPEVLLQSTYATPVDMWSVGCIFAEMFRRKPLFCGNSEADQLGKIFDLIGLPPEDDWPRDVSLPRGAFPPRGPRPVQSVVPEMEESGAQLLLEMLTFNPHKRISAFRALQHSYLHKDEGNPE
Sequence of CDK4/CCND3 (P30281 whole entry partner): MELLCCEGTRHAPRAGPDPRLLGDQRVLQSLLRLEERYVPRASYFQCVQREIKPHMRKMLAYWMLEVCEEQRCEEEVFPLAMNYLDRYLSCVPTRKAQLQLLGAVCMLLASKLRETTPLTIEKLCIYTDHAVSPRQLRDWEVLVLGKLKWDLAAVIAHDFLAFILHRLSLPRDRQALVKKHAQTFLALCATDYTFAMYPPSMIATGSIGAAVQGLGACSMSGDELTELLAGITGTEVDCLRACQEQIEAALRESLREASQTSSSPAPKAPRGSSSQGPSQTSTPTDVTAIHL
Sequence of CDK1/CCNB1 (P06493 whole entry): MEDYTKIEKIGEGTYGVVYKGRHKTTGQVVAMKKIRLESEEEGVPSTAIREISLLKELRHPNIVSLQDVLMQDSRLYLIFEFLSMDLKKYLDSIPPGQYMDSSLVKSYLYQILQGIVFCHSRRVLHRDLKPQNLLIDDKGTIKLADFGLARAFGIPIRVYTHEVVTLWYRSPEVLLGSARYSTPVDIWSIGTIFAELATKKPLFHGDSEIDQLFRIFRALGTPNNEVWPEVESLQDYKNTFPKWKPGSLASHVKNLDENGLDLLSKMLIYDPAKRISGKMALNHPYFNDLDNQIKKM
Sequence of CDK1/CCNB1 (P14635 whole entry partner): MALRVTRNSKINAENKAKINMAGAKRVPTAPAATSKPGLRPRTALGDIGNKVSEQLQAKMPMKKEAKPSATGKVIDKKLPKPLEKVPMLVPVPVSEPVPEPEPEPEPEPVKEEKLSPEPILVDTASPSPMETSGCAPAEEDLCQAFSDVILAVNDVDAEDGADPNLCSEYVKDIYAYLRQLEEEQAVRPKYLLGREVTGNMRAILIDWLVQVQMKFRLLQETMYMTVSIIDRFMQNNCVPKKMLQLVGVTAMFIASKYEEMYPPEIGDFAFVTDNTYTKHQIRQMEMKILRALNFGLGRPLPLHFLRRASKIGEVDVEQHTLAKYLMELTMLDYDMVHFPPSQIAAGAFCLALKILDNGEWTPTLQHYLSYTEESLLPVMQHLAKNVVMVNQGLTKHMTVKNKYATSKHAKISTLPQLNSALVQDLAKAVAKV

- IC50 [1, 9]: 25 to 250 nM
- IC50 [2, 10]: < 25 nM
- IC50 [3, 11]: 25 to 250 nM
- IC50 [4, 12]: > 250 nM
Compound: C[C@@H](C#Cc1nccc2cnc(Nc3ccc(S(C)(=O)=O)cc3)cc12)CO [Example 488, (S)-2-methyl-4-(7-((4-(methylsulfonyl)phenyl)amino)-2,6-naphthyridin-1-yl)but-3-yn-1-ol]

- IC50 ([1]; 25-250 nM, 1 mM ATP, read-out: CDK6/CCND IC50, 25-250 nM): 25 to 250 nM
- IC50 [2, 6]: < 25 nM
- IC50 ([3]; 25-250 nM, read-out: CDK4/CCND IC50, 25-250 nM): 25 to 250 nM
- IC50 ([4]; 25-250 nM, read-out: CDK1/CCNB IC50, 25-250 nM): 25 to 250 nM
Compound: CS(=O)(=O)c1ccc(Nc2cc3c(C#CC45CCC(C#N)(CC4)CC5)nccc3cn2)cc1 (racemic) [Ex 946, 4-((7-((4-(methylsulfonyl)phenyl)amino)-2,6-naphthyridin-1-yl)ethynyl)bicyclo[2.2.2]octane-1-carbonitrile]

- IC50 [1, 5]: > 250 nM
- IC50 [2, 17]: 25 to 250 nM
- IC50 [3, 7]: > 250 nM
- IC50 [4, 8]: > 250 nM
Compound: CC#Cc1nccc2cnc(Nc3ccc(S(=O)(=O)Nc4nc(OC)cc(OC)n4)cc3)cc12 [Ex 890, N-(4,6-dimethoxypyrimidin-2-yl)-4-((5-(prop-1-yn-1-yl)-2,6-naphthyridin-3-yl)amino)benzenesulfonamide]

- IC50 [1, 18]: > 250 nM
- IC50 [2, 19]: 25 to 250 nM
- IC50 [3, 15]: 25 to 250 nM
- IC50 [4, 16]: > 250 nM
Compound: CS(=O)(=O)c1ccc(Nc2cc3c(-c4ccc5[nH]ncc5c4F)nccc3cn2)cc1 [Ex 184, 5-(4-fluoro-1H-indazol-5-yl)-N-(4-(methylsulfonyl)phenyl)-2,6-naphthyridin-3-amine]

- IC50 [1, 5]: > 250 nM
- IC50 [2, 17]: 25 to 250 nM
- IC50 [3, 7]: > 250 nM
- IC50 [4, 8]: > 250 nM
Compound: CN1CCN(c2ccc(C#Cc3nccc4cnc(Nc5ccc(S(=O)(=O)Nc6ncccn6)cc5)cc34)cc2)CC1 [Ex 864, 4-((5-((4-(4-methylpiperazin-1-yl)phenyl)ethynyl)-2,6-naphthyridin-3-yl)amino)-N-(pyrimidin-2-yl)benzenesulfonamide]

- IC50 [1, 21]: < 25 nM
- IC50 [2, 14]: < 25 nM
- IC50 [3, 22]: < 25 nM
- IC50 [4, 23]: 25 to 250 nM
Compound: Cc1c(-c2nccc3cnc(Nc4ccc(S(C)(=O)=O)cc4)cc23)ccc2c1cnn2CC1CNC1 [Ex 207, 5-(1-(azetidin-3-ylmethyl)-4-methyl-1H-indazol-5-yl)-N-(4-(methylsulfonyl)phenyl)-2,6-naphthyridin-3-amine]

- IC50 [1, 13]: 25 to 250 nM
- IC50 [2, 19]: 25 to 250 nM
- IC50 [3, 15]: 25 to 250 nM
- IC50 [4, 16]: > 250 nM
Compound: CC(=O)N[C@H]1CC[C@H](C#Cc2nccc3cnc(Nc4ccc(S(C)(=O)=O)cc4)cc23)CC1 [Ex 246, N-((1r,4r)-4-((7-((4-(methylsulfonyl)phenyl)amino)-2,6-naphthyridin-1-yl)ethynyl)cyclohexyl)acetamide]

- IC50 [1, 9]: 25 to 250 nM
- IC50 [2, 10]: < 25 nM
- IC50 [3, 11]: 25 to 250 nM
- IC50 ([4]; x = IC50 25-250 nM, read-out: CDK1/CCNB IC50 (25-250 nM)): 25 to 250 nM
Compound: CS(=N)(=O)c1ccc(Nc2cc3c(C#Cc4ccc5oc(=O)[nH]c5c4)nccc3cn2)cc1 (single isomer, unassigned) [Example 483, 5-((7-((4-(S-methylsulfonimidoyl)phenyl)amino)-2,6-naphthyridin-1-yl)ethynyl)benzo[d]oxazol-2(3H)-one]

Continued, compound first:

Compound: Cc1c(-c2nccc3cnc(Nc4ccc(S(=O)(=O)Nc5cc(C(C)(C)O)ccn5)cc4)cc23)ccc2c1cnn2CC(O)(C(F)(F)F)C(F)(F)F [Ex 710, N-(4-(2-hydroxypropan-2-yl)pyridin-2-yl)-4-((5-(4-methyl-1-(3,3,3-trifluoro-2-hydroxy-2-(trifluoromethyl)propyl)-1H-indazol-5-yl)-2,6-naphthyridin-3-yl)amino)benzenesulfonamide]
- IC50 [1, 5]: > 250 nM
- IC50 [2, 6]: < 25 nM
- IC50 [3, 7]: > 250 nM
- IC50 [4, 8]: > 250 nM

Compound: CS(=O)(=O)N1CCC(Nc2cc3c(N4CCC(C#N)CC4)nccc3cn2)CC1 [Ex 37, 1-(7-((1-(methylsulfonyl)piperidin-4-yl)amino)-2,6-naphthyridin-1-yl)piperidine-4-carbonitrile]
- IC50 [1, 13]: 25 to 250 nM
- IC50 [2, 14]: < 25 nM
- IC50 [3, 15]: 25 to 250 nM
- IC50 [4, 16]: > 250 nM

Compound: CCc1ccc(S(=O)(=O)Nc2ccc(Nc3cc4c(-c5ccc6c(cnn6CC(C)(C)O)c5C)nccc4cn3)cc2)s1 [Ex 829, 5-ethyl-N-(4-((5-(1-(2-hydroxy-2-methylpropyl)-4-methyl-1H-indazol-5-yl)-2,6-naphthyridin-3-yl)amino)phenyl)thiophene-2-sulfonamide]
- IC50 [1, 5]: > 250 nM
- IC50 [2, 6]: < 25 nM
- IC50 [3, 7]: > 250 nM
- IC50 [4, 8]: > 250 nM

Compound: CS(=O)(=O)N1CCC(Nc2cc3c(-c4ccc5c(c4)CC(=O)N5)nccc3cn2)CC1 [Ex 91, 5-(7-((1-(methylsulfonyl)piperidin-4-yl)amino)-2,6-naphthyridin-1-yl)indolin-2-one]
- IC50 [1, 13]: 25 to 250 nM
- IC50 [2, 14]: < 25 nM
- IC50 [3, 15]: 25 to 250 nM
- IC50 [4, 16]: > 250 nM

Compound: CS(=O)(=O)c1ccc(Nc2cc3c(C4CCN(S(=O)(=O)C5CC5)C4)nccc3cn2)cc1 (racemic) [Ex 239, 5-(1-(cyclopropylsulfonyl)pyrrolidin-3-yl)-N-(4-(methylsulfonyl)phenyl)-2,6-naphthyridin-3-amine]
- IC50 [1, 18]: > 250 nM
- IC50 ([2]; >250 nM marked x, read-out: CDK2/CCNE IC50 >250 nM): > 250 nM
- IC50 [3, 20]: > 250 nM
- IC50 [4, 16]: > 250 nM

Compound: CS(=O)(=O)N1CCC(Nc2cc3c(-c4ccc5[nH]ncc5c4)nccc3cn2)CC1 [Ex 77, 5-(1H-indazol-5-yl)-N-(1-(methylsulfonyl)piperidin-4-yl)-2,6-naphthyridin-3-amine]
- IC50 [1, 13]: 25 to 250 nM
- IC50 [2, 14]: < 25 nM
- IC50 [3, 15]: 25 to 250 nM
- IC50 [4, 16]: > 250 nM

Compound: Cc1cc(C)cc(NS(=O)(=O)c2ccc(Nc3cc4c(-c5ccc6c(cnn6CC(C)(C)O)c5C)nccc4cn3)cc2)c1 [Ex 808, N-(3,5-dimethylphenyl)-4-((5-(1-(2-hydroxy-2-methylpropyl)-4-methyl-1H-indazol-5-yl)-2,6-naphthyridin-3-yl)amino)benzenesulfonamide]
- IC50 [1, 5]: > 250 nM
- IC50 [2, 17]: 25 to 250 nM
- IC50 [3, 7]: > 250 nM
- IC50 [4, 8]: > 250 nM

Compound: C=CS(=O)(=O)c1ccc(Nc2cc3c(N4CCC(C#N)C4)nccc3cn2)cc1 (racemic) [Ex 122, 1-(7-((4-(vinylsulfonyl)phenyl)amino)-2,6-naphthyridin-1-yl)pyrrolidine-3-carbonitrile]
- IC50 [1, 18]: > 250 nM
- IC50 [2, 19]: 25 to 250 nM
- IC50 [3, 20]: > 250 nM
- IC50 [4, 16]: > 250 nM

Compound: Cc1c(-c2nccc3cnc(Nc4ccc(S(C)(=O)=O)cc4)cc23)ccc2c1cnn2C(N)=O [Example 659, 4-methyl-5-(7-((4-(methylsulfonyl)phenyl)amino)-2,6-naphthyridin-1-yl)-1H-indazole-1-carboxamide]
- IC50 [1, 9]: 25 to 250 nM
- IC50 [2, 10]: < 25 nM
- IC50 [3, 11]: 25 to 250 nM
- IC50 [4, 12]: > 250 nM

Compound: CS(=O)(=O)N1CCC(Nc2cc3c(-c4ccc5cn[nH]c5c4)nccc3cn2)CC1 [Ex 76, 5-(1H-indazol-6-yl)-N-(1-(methylsulfonyl)piperidin-4-yl)-2,6-naphthyridin-3-amine]
- IC50 [1, 21]: < 25 nM
- IC50 [2, 14]: < 25 nM
- IC50 [3, 22]: < 25 nM
- IC50 [4, 23]: 25 to 250 nM

Compound: O=C(NC1CCSC1=O)c1ccc(Nc2cc3c(C4=CCCCC4)nccc3cn2)cc1 (racemic) [Ex 114, 4-((5-(cyclohex-1-en-1-yl)-2,6-naphthyridin-3-yl)amino)-N-(2-oxotetrahydrothiophen-3-yl)benzamide]
- IC50 [1, 21]: < 25 nM
- IC50 [2, 14]: < 25 nM
- IC50 [3, 22]: < 25 nM
- IC50 [4, 23]: 25 to 250 nM
